{"source": "patent US10532053B2", "about": "“Histone deacetylase inhibitor, and preparation method and use thereof” (GUANGDONG ZHONGSHENG PHARMACEUTICAL CO., LTD, priority 2015, dated 2020)", "key": {"[1]": {"target": "HDAC3 (Homo sapiens, UniProt O15379)", "sequence (O15379 whole entry)": "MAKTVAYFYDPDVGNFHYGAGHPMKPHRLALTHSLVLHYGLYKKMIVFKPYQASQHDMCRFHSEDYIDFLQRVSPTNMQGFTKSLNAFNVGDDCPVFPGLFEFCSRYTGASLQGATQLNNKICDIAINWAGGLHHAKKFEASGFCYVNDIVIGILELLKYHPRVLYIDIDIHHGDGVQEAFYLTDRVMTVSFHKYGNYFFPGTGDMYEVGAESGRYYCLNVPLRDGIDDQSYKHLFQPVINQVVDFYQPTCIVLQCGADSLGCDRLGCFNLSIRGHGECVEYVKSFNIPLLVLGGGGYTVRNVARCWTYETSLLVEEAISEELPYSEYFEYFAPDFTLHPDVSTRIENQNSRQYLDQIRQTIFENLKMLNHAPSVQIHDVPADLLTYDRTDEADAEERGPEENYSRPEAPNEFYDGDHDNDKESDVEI", "sequence (Q9Y618 395-489 partner limits assumed)": "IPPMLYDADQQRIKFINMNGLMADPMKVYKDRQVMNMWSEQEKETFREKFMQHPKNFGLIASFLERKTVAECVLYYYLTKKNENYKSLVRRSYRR", "conditions": "read-out: IC50 HDAC3; Table 4, Class I", "method": "The HDAC inhibitory activity was determined by fluorescence-coupled acetylated peptide substrate assay (Lys-Ac-AMC). […] The small molecule compounds of the present invention were prepared by being dissolved in 100% DMSO. HDAC was prepared in a buffer at a certain concentration as an enzyme solution; trypsin and fluorescent group 4-amino-7-coumarin coupled-acetylated peptide (Ac-peptide) substrate were prepared in a buffer at a certain concentration as a substrate solution. The compounds were added into the reaction wells in a 384-well plate at a designed concentration of 10 μM, 1 μM, 0.5 μM, 0.1 μM, 0.05 μM, 0.01 μM, 0.005 μM, 0.001 μM, and 0.00005 μM, respectively, and then 15 μl of the HDAC solution was added into the reaction wells (15 μl of blank buffer to the control well). […] The results were analyzed by GraphPad Prism software and IC50 values were calculated according to the formula: Y=Background Data+(Top Data−Background Data)/(1+10^((Log IC50−X) a curve slope)), where Y: the inhibition rate (%) and X: the concentration of the compound."}, "[2]": {"assay": "Assay on the bioavailability in SD rats (plasma, LC-MS/MS)", "assay_type": "in vivo", "conditions": "for Area under the curve / Clearance rate / Distribution volume / Half-life / Maximum plasma concentration: dose 12 mg/kg (Table 6)"}, "[3]": {"tested_on": "Lung cancer A549", "assay": "Cell proliferative activity (MTT / cck-8)", "assay_type": "cell-based", "conditions": "Homo sapiens, read-out: Half-Inhibitory Concentration IC50 A549"}, "[4]": {"tested_on": "Ramos cells", "assay": "Therapeutic effect on the B-cell lymphoma Ramos subcutaneous tumor model", "assay_type": "in vivo, NOD/SCID mice", "conditions": "6 times; for tumor inhibitory rate: vs solvent group"}, "[5]": {"tested_on": "A2780s cells", "conditions": "A2780s model, 16 times; for tumor inhibitory rate: vs solvent group"}, "[6]": {"tested_on": "Colon cancer HCT116", "assay": "Cell proliferative activity (MTT / cck-8)", "assay_type": "cell-based", "conditions": "Homo sapiens, HCT-116, read-out: Half-Inhibitory Concentration IC50 HCT116"}, "[7]": {"tested_on": "acetylation level of HDAC substrate (Ac-α-tubulin, Ac-H3)", "assay": "Western blot assay for detecting the level of acetylated proteins", "assay_type": "cell-based", "conditions": "HCT116 cells (FIG. 3) or MV4-11 cells (FIG. 4)", "description": "The compounds or the positive control compound were added into each group of cells already adherent to the walls (2×10^6 HCT116 cells or 5×10^6 MV4-11 cells) at a designed concentration. After treatment for 4 hours, trypsin was added for digestion, followed by collecting the cells. After washing with cold PBS twice, the cells were lysed by adding RIPA lysis solution (which was purchased from Beyotime, Art. No.: P0013B, adding 1 mM PMSF before use), allowing for lysis on ice for 30 minutes while vortexing at intervals. The lysate was subjected to ultrasonic treatment on an ice bath (ultrasonicated for 3 seconds and repeated 5 times for each group at an interval of 10 seconds). The supernatant was collected by centrifugation at 12,000 g for 20 min at 4° C. and then mixed the SDS-PAGE loading buffer (purchased from Beyotime, Art. No.: P0015F). The mixture was heated in boiling water for 5 minutes to obtain a protein sample. The protein concentration of the sample was quantified by BCA method. 20 […] total protein from each group was subjected to 15% SDS-PAGE electrophoresis, and 5μl of a pre-stained protein marker (purchased from Thermo, Art. No.: 26616) was loaded to an additional selective lane in order to compare protein molecular weights as well as to detect the transmembrane result. When the bromophenol blue bands ran close to the bottom of the gel, the electrophoresis was terminated and the proteins on the gel were transferred to a PVDF membrane at a pore size of 0.22 μm. After 1.5 hours of transmembrane at a constant current of 200 mA, the PVDF membrane was removed and blocked in 5% skimmed milk for 1 hour. After completion of blocking, the membrane was incubated with the primary antibody (Ac-H3 antibody was purchased from Santa Cruz, Art. No.: sc-56616; Ac-α-tubulin antibody was purchased from Santa Cruz, Art. No.: sc-23950) overnight at 4° C. and then washed with TBS/T for 10 minutes for 3 times. The membrane was incubated with the horseradish peroxidase-coupled secondary antibody at room temperature for 1 hour, and then washed with TBS/T for 10 minutes for 3 times. After washing with TBS for 5 minutes, the membrane was exposed and developed by using a film in the darkroom. The detected GAPDH protein was an internal reference protein (GAPDH antibody was purchased from ZSGB-Bio, Art. No.: TA-08)."}, "[8]": {"target": "T1, HDAC6 (Homo sapiens, UniProt Q9UBN7)", "T1 sequence (Q9UBN7 1-1215)": "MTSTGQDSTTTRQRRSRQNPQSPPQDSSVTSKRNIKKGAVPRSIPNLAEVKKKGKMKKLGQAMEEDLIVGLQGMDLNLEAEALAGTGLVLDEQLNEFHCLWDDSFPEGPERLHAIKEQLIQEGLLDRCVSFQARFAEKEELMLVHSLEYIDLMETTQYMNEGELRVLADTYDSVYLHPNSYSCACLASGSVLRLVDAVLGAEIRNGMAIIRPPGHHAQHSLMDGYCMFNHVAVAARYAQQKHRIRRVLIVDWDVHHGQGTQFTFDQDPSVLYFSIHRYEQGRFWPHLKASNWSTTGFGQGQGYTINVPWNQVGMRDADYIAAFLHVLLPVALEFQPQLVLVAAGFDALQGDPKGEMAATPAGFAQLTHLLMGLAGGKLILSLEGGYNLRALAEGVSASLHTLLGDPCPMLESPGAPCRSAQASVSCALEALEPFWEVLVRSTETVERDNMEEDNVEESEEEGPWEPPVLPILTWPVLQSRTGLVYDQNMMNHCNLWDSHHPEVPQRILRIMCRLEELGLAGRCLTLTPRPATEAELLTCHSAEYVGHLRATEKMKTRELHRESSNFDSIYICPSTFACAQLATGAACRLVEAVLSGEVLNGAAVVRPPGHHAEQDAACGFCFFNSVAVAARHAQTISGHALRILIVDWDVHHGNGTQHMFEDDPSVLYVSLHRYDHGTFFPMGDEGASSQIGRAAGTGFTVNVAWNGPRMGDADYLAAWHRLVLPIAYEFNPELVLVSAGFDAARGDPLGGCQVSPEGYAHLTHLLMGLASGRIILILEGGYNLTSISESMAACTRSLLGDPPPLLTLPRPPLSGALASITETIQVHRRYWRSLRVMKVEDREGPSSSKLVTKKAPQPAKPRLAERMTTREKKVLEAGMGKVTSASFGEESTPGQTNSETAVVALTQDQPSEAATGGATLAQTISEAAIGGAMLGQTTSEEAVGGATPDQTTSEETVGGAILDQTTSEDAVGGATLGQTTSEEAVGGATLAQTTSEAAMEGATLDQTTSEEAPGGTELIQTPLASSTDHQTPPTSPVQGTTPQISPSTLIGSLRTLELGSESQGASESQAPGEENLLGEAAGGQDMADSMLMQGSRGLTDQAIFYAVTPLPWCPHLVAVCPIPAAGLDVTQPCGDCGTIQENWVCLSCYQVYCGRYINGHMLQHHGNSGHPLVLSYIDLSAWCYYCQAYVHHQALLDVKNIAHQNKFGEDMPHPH", "assay": "HDAC inhibitory activity, fluorescence-coupled acetylated peptide substrate assay", "assay_type": "biochemical", "method": "The HDAC inhibitory activity was determined by fluorescence-coupled acetylated peptide substrate assay (Lys-Ac-AMC). HDAC1 protein was purchased from BPS Bioscience, and the reaction buffer system was a modified tris(hydroxymethyl)aminomethane buffer (pH 7.0). The small molecule compounds of the present invention were prepared by being dissolved in 100% DMSO. HDAC was prepared in a buffer at a certain concentration as an enzyme solution; trypsin and fluorescent group 4-amino-7-coumarin coupled-acetylated peptide (Ac-peptide) substrate were prepared in a buffer at a certain concentration as a substrate solution. The compounds were added into the reaction wells in a 384-well plate at a designed concentration of 10 μM, 1 μM, 0.5 μM, 0.1 μM, 0.05 μM, 0.01 μM, 0.005 μM, 0.001 μM, and 0.00005 μM, respectively, and then 15 μl of the HDAC solution was added into the reaction wells (15 μl of blank buffer to the control well). […] The results were analyzed by GraphPad Prism software and IC50 values were calculated according to the formula: Y=Background Data+(Top Data−Background Data)/(1+10^((Log IC50−X) a curve slope)), where Y: the inhibition rate (%) and X: the concentration of the compound."}, "[9]": {"conditions": "50 mg/kg intragastrically once every other day"}}, "note": "Where two headings read alike, the source gives them in different places."}
{"smiles": "COc1ccc(N(C)c2nc(C)nc3ccccc23)cc1OCCCC(=O)NO", "note": "[III-2, N-hydroxy-4-(2-methoxy-5-(methyl(2-methyl-4-quinazolinyl)amino)phenoxy) butanamide]", "values": [{"measurement": "IC50", "setting": "[1]", "result": "439 ± 9", "unit": "nM"}, {"measurement": "Area under the curve", "setting": "[2]; intravenous administration", "result": 2434.117, "unit": "μg/L · h"}, {"measurement": "Clearance rate", "setting": "[2]; intravenous administration", "result": 116.8, "unit": "mL/min/kg"}, {"measurement": "Distribution volume", "setting": "[2]; intravenous administration", "result": 61.263, "unit": "L/kg"}, {"measurement": "Half-life", "setting": "[2]; intravenous administration", "result": 7.658, "unit": "h"}, {"measurement": "Maximum plasma concentration", "setting": "[2]; intravenous administration", "result": 2213.217, "unit": "µg/L"}, {"measurement": "Bioavailability", "setting": "[2]; oral administration", "result": 47.0, "unit": "%"}, {"measurement": "Area under the curve", "setting": "[2]; oral administration", "result": 1242.234, "unit": "μg/L · h"}, {"measurement": "Clearance rate", "setting": "[2]; oral administration", "result": 214.62, "unit": "mL/min/kg"}, {"measurement": "Distribution volume", "setting": "[2]; oral administration", "result": 154.811, "unit": "L/kg"}, {"measurement": "Half-life", "setting": "[2]; oral administration", "result": 9.62, "unit": "h"}, {"measurement": "Maximum plasma concentration", "setting": "[2]; oral administration", "result": 238.133, "unit": "µg/L"}, {"measurement": "IC50", "setting": "[3]", "result": "104 ± 29", "unit": "nM"}, {"measurement": "tumor inhibitory rate", "setting": "[4]; 10 mg/kg intragastrically once every other day", "result": "no effects on inhibiting tumor growth"}, {"measurement": "tumor inhibitory rate", "setting": "[4]; 20 mg/kg intragastrically once every other day", "result": "no effects on inhibiting tumor growth"}, {"measurement": "tumor inhibitory rate", "setting": "[4]; 40 mg/kg intragastrically once every other day", "result": 22.54, "unit": "%"}, {"measurement": "toxicity (death of mice during the experiment)", "setting": "[4]; 80 mg/kg intragastrically once every other day, a mouse died", "result": "may exhibit toxicity to a few individuals"}, {"measurement": "tumor inhibitory rate", "setting": "[4]; 80 mg/kg intragastrically once every other day", "result": 58.79, "unit": "%"}, {"measurement": "tumor inhibitory rate", "setting": "[5]; 12.5 mg/kg intragastrically once every other day", "result": 78.49, "unit": "%"}, {"measurement": "tumor inhibitory rate", "setting": "[5]; 25 mg/kg intragastrically once every other day", "result": 82.02, "unit": "%"}, {"measurement": "death of mice during the experiment", "setting": "[5]; [9]", "result": "one mouse died"}, {"measurement": "tumor inhibitory rate", "setting": "[5]; [9]", "result": 81.70, "unit": "%"}, {"measurement": "IC50", "setting": "[6]", "result": "35 ± 21", "unit": "nM"}, {"measurement": "acetylation of H3 (Ac-H3)", "setting": "[7]", "result": "deacetylation of Ac-H3 by the compound III-2 was also demonstrated"}, {"measurement": "acetylation of α-tubulin", "setting": "[7]", "result": "up-regulate the acetylated α-tubulin protease in a dose-dependent manner"}, {"measurement": "IC50", "setting": "[8]; Table 2", "result": "10 to 100", "unit": "nM"}, {"measurement": "IC50", "setting": "[8]; Table 4, Class IIb", "result": "17 ± 2", "unit": "nM"}]}
